Measurements published in US6403788B1, “Non-genotoxic metalloporphyrins as synthetic catalytic scavengers of reactive oxygen species” (Eukarion, Inc., priority 2000, dated 2002).

Assays:
[1] = Catalase activity, hydrogen peroxide consumed at 20 minutes; format: biochemical; conditions: over 20 minutes; 10 μM compound, 100 μM hydrogen peroxide, 40 mM sodium phosphate pH 7.4
Method: (§1) Catalase activity was measured by incubating the sample compound with hydrogen peroxide and determining the amount of hydrogen peroxide remaining after a period of time using a colorimetric peroxidase-coupled assay method. 10 μM sample compound and 100 μM hydrogen peroxide in 40 mM sodium phosphate pH 7.4 were incubated together at ambient temperature in a multi-well plate. After the desired reaction period had elapsed, 20 μl of peroxidase/ABTS reagent was added (peroxidase/ABTS reagent contained 100 μl of 50 mM Na phosphate, pH 7.4, 1 mg horseradish peroxidase (1310 U/mg) and […]). After five minutes, absorbance at 750 nm was determined. The amount of hydrogen peroxide remaining was calculated based on a standard curve. To compare rates of catalase reaction, the amount of hydrogen peroxide consumed at 20 minutes was determined (See table III). It was also of interest to determine the total number of turnovers completed by the compound before inactivation by hydrogen peroxide. This was assayed under similar conditions, except that 15.8 μM compound was combined with 1582 μM hydrogen peroxide in 5 mM Na phosphate, pH 7.4. Reactions were allowed to proceed to completion and then the amount of hydrogen peroxide remaining was determined as described above. Results showing […] in the turnover assay (nmoles hydrogen peroxide per nmole compound) are also shown in Table III.

[2] = Catalase turnover assay, total hydrogen peroxide consumed before inactivation; format: biochemical; conditions: to completion, 15.8 μM compound, 1582 μM hydrogen peroxide, 5 mM Na phosphate pH 7.4
Method: as §1

[3] = Peroxidase activity, ABTS oxidation; format: biochemical; conditions: 10 μM compound, 200 μM hydrogen peroxide, 500 μM ABTS, pH 8.1, 740 nm
Method: Peroxidase activity was measured by incubating 10 μM compound, 200 μM hydrogen peroxide and 500 μM ABTS in 50 mM sodium phosphate, pH 8.1. The rate of ABTS oxidation was monitored at 740 nm and initial rates (change in absorbance per min.) determined.

[4] = Superoxide dismutase activity, xanthine-xanthine oxidase / cytochrome C; format: biochemical; conditions: reciprocal of IC50; xanthine 60 μM, xanthine oxidase 0.009 units/ml, cytochrome C 27.8 μM
Method: Superoxide Dismutase Activity was measured by incubating the compound with a superoxide generating system (Xanthine, 60 μM-Xanthine Oxidase, 0.009 units/ml) and a detector molecule (Cytochrome C, 27.8 μM). Upon reacting with a molecule of superoxide, Cytochrome C undergoes a spectrum-shift which can be detected as an increase in absorbance at 550 nm. In this assay procedure, the reactant concentrations were adjusted to give a reaction rate close to 0.1 AU/min. at 2-3 min. after the reaction began. Addition of compounds with Superoxide Dismutase activity reduce the rate of absorbance change. Compounds were assayed at several concentrations (typically at 0, 2, 4, and 8 μM) and the resulting rates were graphed and fitted to a linear regression formula. The linear regression formula was then solved to determine the concentration of compound required to reduce the reaction rate to 50% of the rate without compound present (IC50).

[5] = system: ΦX 174 DNA Plasmid (Form I); assay: Cleavage of ΦX 174 DNA plasmid (form I), compound alone or activated with KHSO5; format: biochemical, phage ΦX 174
Text: (§2) The DNA cleavage activity was quantified in terms of number of single-strand breaks per DNA molecule according to the equation […], Io=% form I (supercoiled DNA) in the DNA control, and I=% form I in the experiment (see Bernadou et al, Biochemistry, 28: 7268-7275, (1989)). This assay is very sensitive and is able to detect very low levels of DNA activity. S values less than S=1.0 are indicative of very low DNA cleavage activity when the compounds are at a concentration of equal to or less than 1000 nM and KHSO5 is present at a concentration of equal to or less than 100 μM.
(§3) ΦX 174 DNA digestion conditions for standard experiments were as follows: commercially available DNA was diluted to 50 μg/mL in phosphate buffer (10 mM, pH 7.5). The reaction involved 5 μL of ΦX 174 DNA (50 μg/mL, 74.8 μM in base pairs), 5 μL of 40 mM phosphate buffer, pH 7.5 with 400 mM NaCl, 5 μL of metalloporphyrin in double-distilled water or 5 μL of iron-bleomycin complex in double-distilled water, and 5 μL of KHSO5 or 5 μL of H2O2 or 5 μL of ascorbate in double-distilled water. Preincubation of DNA and metalloporphyrins or iron-bleomycin complex was performed for about 15 min. The digestion time in the presence of KHSO5 was 10 min, of H2O2 was 30 min and of ascorbate was 30 min at 20° C. DNA cleavage was monitored by agarose gel electrophoresis. Reactions with KHSO5 were first quenched by 2 μL of 100 mM Hepes buffer, pH 8. In all cases, reactions were quenched by 5 μL of a stopping reagent. The stopping reagent consisted of 250 mM Hepes buffer, pH 7.4, containing 75% glycerol and 0.05% bromophenol blue. Reaction mixtures were then run in 0.8% agarose slab horizontal gel containing ethidium bromide […], at constant current (25 mA for 15h), in 89 mM Tris-borate buffer and 2.5 mM EDTA pH 8.3. Bands were located by WV light (254 nm), photographed, and quantitated by microdensitometry. The correction coefficient 1.47±0.30 was used for decreased stainability of form I DNA vs form II DNA and form III DNA.

[6] = system: ΦX 174 DNA Plasmid (Form I); assay: Cleavage of ΦX 174 DNA plasmid (form I), activation with ascorbate in the presence of air; format: biochemical, phage ΦX 174; conditions: for S (single-strand breaks per DNA molecule) / form % I / form % II / form % III: DNA 3.5 nM
Text: as §2, §3

[7] = system: ΦX 174 DNA Plasmid (Form I); assay: Cleavage of ΦX 174 DNA plasmid (form I), activation with H2O2; format: biochemical, phage ΦX 174; conditions: DNA 3.5 nM, compound 1 μM, H2O2 1 mM
Text: as §2, §3

[8] = DNA 3.5 nM, compound 1 μM, KHSO5 100 μM
[9] = compound 10 nM, without ascorbate (Table II)

## O=C(O)c1ccc(-c2c3nc(c(-c4ccc(C(=O)O)cc4)c4ccc([n-]4)c(-c4ccc(C(=O)O)cc4)c4nc(c(-c5ccc(C(=O)O)cc5)c5ccc2[n-]5)C=C4)C=C3)cc1.[Mn+3] [MnTBAP, Mn(III) tetrakis (4-benzoic acid) porphyrin, reference compound]
[1]
  CATALASE* Rate at 20 mins.: 0.4 nmole H2O2/nmole Structural Formula compound
[2]
  CATALASE** H2O2 Consumption: 38.5 nmole H2O2/nmole Structural Formula compound
[3]
  PEROXIDASE Initial Rate: 0.0304 change in absorbance per min.
[4]
  Cyt C SOD 1/(IC50, μM): 0.015 µM⁻¹

## CC[NH+](CC)CCNS(=O)(=O)c1ccc(C2=C3C=CC4=[N+]3[Mn-]35[n]6c2ccc6C(c2ccc(S(=O)(=O)NCC[NH+](CC)CC)cc2)=C2C=CC(=[N+]23)C(c2ccc(S(=O)(=O)NCC[NH+](CC)CC)cc2)=c2ccc([n]25)=C4c2ccc(S(=O)(=O)NCC[NH+](CC)CC)cc2)cc1.[Cl-].[Cl-].[Cl-].[Cl-].[Cl-] [Structural Formula II, meso-tetrakis[4-(N-(2-(N,N-diethylammonio)ethyl)aminosulfonyl)phenyl]porphyrinato diaqua-manganese (III) pentachloride]
[1]
  CATALASE* Rate at 20 mins.: 1.6 nmole H2O2/nmole Structural Formula compound
[2]
  CATALASE** H2O2 Consumption: 42.4 nmole H2O2/nmole Structural Formula compound
[3]
  PEROXIDASE Initial Rate: 0.0151 change in absorbance per min.
[4]
  Cyt C SOD 1/(IC50, μM): 0.034 µM⁻¹

## CC[NH+](CC)CCNS(=O)(=O)c1ccc(-c2c3nc(c(-c4ccc(S(=O)(=O)NCC[NH+](CC)CC)cc4)c4ccc([n-]4)c(-c4ccc(S(=O)(=O)NCC[NH+](CC)CC)cc4)c4nc(c(-c5ccc(S(=O)(=O)NCC[NH+](CC)CC)cc5)c5ccc2[n-]5)C=C4)C=C3)cc1.O.O.[Cl-].[Cl-].[Cl-].[Cl-].[Cl-].[Fe+3] [Structural Formula III, meso-tetrakis[4-(N-(2-(N,N-diethylammonio)ethyl)aminosulfonyl)phenyl]porphyrinato diaqua-iron (III) pentachloride]
[1]
  CATALASE* Rate at 20 mins.: 0.3 nmole H2O2/nmole Structural Formula compound
[2]
  CATALASE** H2O2 Consumption: 4.7 nmole H2O2/nmole Structural Formula compound
[3]
  PEROXIDASE Initial Rate: 0.0363 change in absorbance per min.
[4]
  Cyt C SOD 1/(IC50, μM): 0.045 µM⁻¹

## CC(=O)[O-].CC(=O)[O-].CC(=O)[O-].CC(=O)[O-].CC(=O)[O-].CC[N+](C)(CC)CCNS(=O)(=O)c1ccc(-c2c3nc(c(-c4ccc(S(=O)(=O)NCC[N+](C)(CC)CC)cc4)c4ccc([n-]4)c(-c4ccc(S(=O)(=O)NCC[N+](C)(CC)CC)cc4)c4nc(c(-c5ccc(S(=O)(=O)NCC[N+](C)(CC)CC)cc5)c5ccc2[n-]5)C=C4)C=C3)cc1.O.O.[Mn+3] [Structural Formula VI, meso-tetrakis[4-(N-(2-(N,N,N-diethylmethylammonio)ethyl)aminosulfonyl)phenyl]porphyrinato diaqua-manganese (III) pentaacetate]
[1]
  CATALASE* Rate at 20 mins.: 2.4 nmole H2O2/nmole Structural Formula compound
[2]
  CATALASE** H2O2 Consumption: 42 nmole H2O2/nmole Structural Formula compound
[3]
  PEROXIDASE Initial Rate: 0.0011 change in absorbance per min.
[4]
  Cyt C SOD 1/(IC50, μM): 0.041 µM⁻¹

## CC(=O)[O-].CC(=O)[O-].CC(=O)[O-].CC(=O)[O-].CC(=O)[O-].CC[N+](C)(CC)CCNS(=O)(=O)c1c(C)cc(C)c(-c2c3nc(c(-c4c(C)cc(C)c(S(=O)(=O)NCC[N+](C)(CC)CC)c4C)c4ccc([n-]4)c(-c4c(C)cc(C)c(S(=O)(=O)NCC[N+](C)(CC)CC)c4C)c4nc(c(-c5c(C)cc(C)c(S(=O)(=O)NCC[N+](C)(CC)CC)c5C)c5ccc2[n-]5)C=C4)C=C3)c1C.O.O.[Mn+3] [Structural Formula VII, meso-tetrakis[3-(N-(2-(N,N,N-diethylmethylammonio)ethyl)aminosulfonyl)-2,4,6-trimethylphenyl]porphyrinato diaqua-manganese (III) pentaacetate]
[1]
  CATALASE* Rate at 20 mins.: 1.3 nmole H2O2/nmole Structural Formula compound
[2]
  CATALASE** H2O2 Consumption: 166.6 nmole H2O2/nmole Structural Formula compound
[3]
  PEROXIDASE Initial Rate: 0.0025 change in absorbance per min.
[4]
  Cyt C SOD 1/(IC50, μM): 0.013 µM⁻¹

## CC(=O)[O-].CC(=O)[O-].CC(=O)[O-].CC(=O)[O-].CC(=O)[O-].CC[N+](C)(CC)CCNS(=O)(=O)c1c(C)cc(C)c(C2=C3C=CC4=[N+]3[Fe-]35[n]6c2ccc6C(c2c(C)cc(C)c(S(=O)(=O)NCC[N+](C)(CC)CC)c2C)=C2C=CC(=[N+]23)C(c2c(C)cc(C)c(S(=O)(=O)NCC[N+](C)(CC)CC)c2C)=c2ccc([n]25)=C4c2c(C)cc(C)c(S(=O)(=O)NCC[N+](C)(CC)CC)c2C)c1C [Structural Formula VIII, meso-tetrakis[3-(N-(2-(N,N,N-diethylmethylammonio)ethyl)aminosulfonyl)-2,4,6-trimethylphenyl]porphyrinato diaqua-iron(III) pentaacetate]
[5]; [8]
  S (single-strand breaks per DNA molecule): 0.03 SSBs
  form % I: 90%
  form % II: 10%
  form % III: 0%
[5]; oxidative medium (KHSO5)
  DNA cleavage activity in oxidative medium: do not exhibit any significant DNA cleavage activity
[6]; compound 1 μM, Asc. 1 mM
  S (single-strand breaks per DNA molecule): 1.61 SSBs
  form % I: 43%
  form % II: 57%
  form % III: 0%
[7]
  S (single-strand breaks per DNA molecule): 0.13 SSBs
  form % I: 86%
  form % II: 14%
  form % III: 0%

## Bleomycin [reference compound]
[6]; 1 μM concentration, ascorbate
  DNA cleavage: all DNA is cleaved in small fragments
[6]; compound 10 nM, Asc. 1 mM
  S (single-strand breaks per DNA molecule): 7.79 SSBs
  form % I: 7%
  form % II: 71%
  form % III: 22%
[6]; [9]
  S (single-strand breaks per DNA molecule): 0.01 SSBs
  form % I: 94%
  form % II: 6%
  form % III: 0%
[6]; same concentration (10 nM), ascorbate 1 mM, from experiments 2, 3, 7 and 8
  times more active in DNA cleavage than Structural Formula V: 768 times
